Literature values, collected in patent publication US20070237820A1, “Pharmaceutical formulations containing a non-steroidal antinflammatory drug and an antiulcerative drug” (Andrx Pharmaceuticals, LLC, priority 2004, published 2007).

What was measured:
[1] = NSAIDs such as diclofenac
[2] = patients on chronic use

| Structure (SMILES) | patients with side effects that require cessation of medication [1] | patients experiencing gross bleeding and ulceration [2] |
| --- | --- | --- |
| O=C(O)Cc1ccccc1Nc1c(Cl)cccc1Cl [diclofenac] | about 20% |  |
| CN1C(C(=O)Nc2ccccn2)=C(O)c2ccccc2S1(=O)=O [piroxicam] |  | up to 4% |
